Test results taken from ChEMBL document CHEMBL1201862, “PubChem BioAssay data set” (2004).
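Results reflect a 48-hour exposure of cells in 96-well plates to compound at five concentrations. GI50: concentration for 50% inhibition of growth.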 The source made the active and inactive calls. Rule as the data show it: active = GI50 up to about 1.1 µM and inactive = higher.

Experiments:
Test in all cases: growth of human tumour cells (NCI), 48 h
[1] = tested on: CAKI-1
[2] = tested on: U-251
[3] = tested on: OVCAR-4
[4] = tested on: HCC 2998
[5] = tested on: SF-268
[6] = tested on: HCT-116
[7] = tested on: NCI-H460
[8] = tested on: CCRF-CEM
[9] = tested on: NCI-H522
[10] = tested on: MCF7
[11] = tested on: HL-60
[12] = tested on: T47D
[13] = tested on: SK-OV-3
[14] = tested on: SK-MEL-28
[15] = tested on: HOP-92
[16] = tested on: DU-145
[17] = tested on: SW-620
[18] = tested on: ACHN
[19] = tested on: MDA-MB-435
[20] = tested on: SF-295

Row | SMILES | GI50 [1] | GI50 [2] | GI50 [3] | GI50 [4] | GI50 [5] | GI50 [6] | GI50 [7] | GI50 [8] | GI50 [9] | GI50 [10] | GI50 [11] | GI50 [12] | GI50 [13] | GI50 [14] | GI50 [15] | GI50 [16] | GI50 [17] | GI50 [18] | GI50 [19] | GI50 [20]
1 | Cc1c2c(C(N)=O)nccc2c(C)c2c1c1ccccc1n2Cc1ccccc1 | 17.6 µM (inactive) | 9.04 µM (inactive) | 2.61 µM (inactive) | 26.4 µM (inactive) | 28.4 µM (inactive) | 10 µM (inactive) | 11.6 µM (inactive) | 23.3 µM (inactive) | 23.7 µM (inactive) | 37 µM (inactive) | 23.3 µM (inactive) | 29.2 µM (inactive) | 22.9 µM (inactive) | 54.5 µM (inactive) | 4.93 µM (inactive) | 27.7 µM (inactive) | 17.2 µM (inactive) | 16.3 µM (inactive) | 33.9 µM (inactive) | 10.8 µM (inactive)
2 | Cc1ccc(S(=O)(=O)N/N=C2/CC[C@H](C(C)(C)C)C[C@@H]2C)cc1 | 13.5 µM (inactive) | 17.4 µM (inactive) | 0.574 µM (active) | 18.9 µM (inactive) | > 10 µM (inactive) | 14.8 µM (inactive) | 17 µM (inactive) | 15.8 µM (inactive) | > 10 µM (inactive) | 18.5 µM (inactive) | 35.6 µM (inactive) | 10.6 µM (inactive) | 18.4 µM (inactive) | 17 µM (inactive) | 16.7 µM (inactive) | 15.2 µM (inactive) | 22.5 µM (inactive) | 16.6 µM (inactive) | 16 µM (inactive) | 15.8 µM (inactive)
3 | O=C(O)c1cc2ccccc2c2c1C(=O)c1ccccc1-2 | > 100 µM (inactive) | > 100 µM (inactive) | > 100 µM (inactive) | > 100 µM (inactive) | > 100 µM (inactive) | > 100 µM (inactive) | > 100 µM (inactive) | > 100 µM (inactive) | 83.9 µM (inactive) | 98.9 µM (inactive) | > 100 µM (inactive) | > 100 µM (inactive) | 56.6 µM (inactive) | 58.3 µM (inactive) | 50.2 µM (inactive) | > 100 µM (inactive) | > 100 µM (inactive) | 30.3 µM (inactive) | > 100 µM (inactive) | 56 µM (inactive)
4 | ClCCN(CCCl)c1ccc(CNCCCNCc2ccc(N(CCCl)CCCl)cc2)cc1 | 6.64 µM (inactive) | 1.33 µM (inactive) |  | 2.1 µM (inactive) | 1.43 µM (inactive) | 4.13 µM (inactive) | 0.402 µM (active) | 2.78 µM (inactive) | 2.13 µM (inactive) | 1.21 µM (inactive) | 1.03 µM (active) | 2.04 µM (inactive) | 2.61 µM (inactive) | 1.69 µM (inactive) | 4.78 µM (inactive) | 2.37 µM (inactive) | 3.03 µM (inactive) | 0.521 µM (active) | 2.69 µM (inactive) | 
5 | Clc1ccccc1-c1nc2cc(C34CC5CC(CC(C5)C3)C4)ccc2[nH]1 | 31.4 µM (inactive) | 7.98 µM (inactive) | 21.5 µM (inactive) | 49.3 µM (inactive) | 41.1 µM (inactive) | 55.1 µM (inactive) | 30.3 µM (inactive) | 33 µM (inactive) | 17 µM (inactive) | 11.2 µM (inactive) | 23.7 µM (inactive) | 10.9 µM (inactive) | 16.1 µM (inactive) | 20.6 µM (inactive) | 10.5 µM (inactive) | 23.2 µM (inactive) | 46 µM (inactive) | 11.6 µM (inactive) | > 100 µM (inactive) | 13.6 µM (inactive)
6 | CC(=O)OC[C@H]1On2nnnc2[C@H](OC(C)=O)[C@@H](OC(C)=O)[C@@H]1OC(C)=O | > 100 µM (inactive) | > 100 µM (inactive) | > 100 µM (inactive) | > 100 µM (inactive) | > 100 µM (inactive) | > 100 µM (inactive) | > 100 µM (inactive) | > 100 µM (inactive) | > 100 µM (inactive) | > 100 µM (inactive) | > 100 µM (inactive) | > 100 µM (inactive) | > 100 µM (inactive) | > 100 µM (inactive) | > 100 µM (inactive) | > 100 µM (inactive) | > 100 µM (inactive) | > 100 µM (inactive) | > 100 µM (inactive) | > 100 µM (inactive)
7 | CN(C)CCNC(=O)c1ccc(NCCCN(C)CCCNc2ccc(C(=O)NCCN(C)C)c3nc4ccc([N+](=O)[O-])cc4c(O)c23)c2c(O)c3cc([N+](=O)[O-])ccc3nc12 | 0.757 µM (active) | < 0.01 µM (active) | 0.127 µM (active) | 0.0347 µM (active) | 0.065 µM (active) | < 0.01 µM (active) | < 0.01 µM (active) | < 0.01 µM (active) | < 0.01 µM (active) | < 0.01 µM (active) | 0.0277 µM (active) | 0.32 µM (active) | 0.232 µM (active) | 0.157 µM (active) | 0.0431 µM (active) | < 0.0272 µM (active) | < 0.01 µM (active) | < 0.0121 µM (active) | 0.0861 µM (active) | 0.0495 µM (active)
8 | C/C1=C/C2=CC(C)C[C@@H]2C(=O)[C@]2(C)C(=O)CC(C)(C)[C@H]2CC1=O (some centres not stated) | > 50 µM (inactive) | > 50 µM (inactive) | > 50 µM (inactive) | > 50 µM (inactive) | > 50 µM (inactive) | > 50 µM (inactive) | > 50 µM (inactive) | 15 µM (inactive) | > 50 µM (inactive) | > 50 µM (inactive) | 9.73 µM (inactive) | > 50 µM (inactive) | > 50 µM (inactive) |  | > 50 µM (inactive) | > 50 µM (inactive) | > 50 µM (inactive) | > 50 µM (inactive) | > 50 µM (inactive) | > 50 µM (inactive)
9 | COc1cc2c(cc1OC)C13CCN4CC5=CCOC6CC(=O)N2C1C6C5CC43O (configuration not stated) | > 100 µM (inactive) | > 100 µM (inactive) | > 100 µM (inactive) | > 100 µM (inactive) | > 100 µM (inactive) | > 100 µM (inactive) | > 100 µM (inactive) | > 100 µM (inactive) | > 100 µM (inactive) | > 100 µM (inactive) | > 100 µM (inactive) | > 100 µM (inactive) | > 100 µM (inactive) | > 100 µM (inactive) | > 100 µM (inactive) | > 100 µM (inactive) | > 100 µM (inactive) | > 100 µM (inactive) | > 100 µM (inactive) | > 100 µM (inactive)
10 | COc1ccc(-c2c(C(C)=O)c(-c3ccccc3)n(C3OC(COC(C)=O)C(OC(C)=O)C(OC(C)=O)C3OC(C)=O)c(=S)c2C#N)cc1 (configuration not stated) | > 100 µM (inactive) | > 100 µM (inactive) | > 100 µM (inactive) | > 100 µM (inactive) | > 100 µM (inactive) | > 100 µM (inactive) | > 100 µM (inactive) | > 100 µM (inactive) | > 100 µM (inactive) | > 100 µM (inactive) | > 100 µM (inactive) | > 100 µM (inactive) | > 100 µM (inactive) | > 100 µM (inactive) | 19.2 µM (inactive) | > 100 µM (inactive) | > 100 µM (inactive) | > 100 µM (inactive) | > 100 µM (inactive) | > 100 µM (inactive)
11 | COc1cc(/C=C/C(=N\NC(=S)NN)c2sc(NNC(C)=O)nc2C)ccc1O | > 100 µM (inactive) | > 100 µM (inactive) | > 100 µM (inactive) | > 100 µM (inactive) | > 100 µM (inactive) | > 100 µM (inactive) | > 100 µM (inactive) | > 100 µM (inactive) | > 100 µM (inactive) | > 100 µM (inactive) | > 100 µM (inactive) | > 100 µM (inactive) | > 100 µM (inactive) | > 100 µM (inactive) | > 100 µM (inactive) | > 100 µM (inactive) | > 100 µM (inactive) | > 100 µM (inactive) | > 100 µM (inactive) | > 100 µM (inactive)
12 | CC(NC(=O)/C(=C/c1ccccc1O)NC(=O)c1ccccc1)C(=O)O (configuration not stated) | 19 µM (inactive) | 50.5 µM (inactive) | 40.4 µM (inactive) | 9.23 µM (inactive) | 15.8 µM (inactive) | 33.2 µM (inactive) | 24.5 µM (inactive) | > 100 µM (inactive) | 18.5 µM (inactive) | 5.85 µM (inactive) | > 100 µM (inactive) | 13.2 µM (inactive) | 19.4 µM (inactive) | > 100 µM (inactive) | 22.2 µM (inactive) | 45.6 µM (inactive) | > 100 µM (inactive) | 19.1 µM (inactive) | 27.8 µM (inactive) | 21.4 µM (inactive)
13 | NNC(=O)CNC(=O)CSc1nnc(COc2ccc(Cl)cc2)n1-c1ccccc1 | > 100 µM (inactive) | > 100 µM (inactive) | > 100 µM (inactive) | > 100 µM (inactive) | > 100 µM (inactive) | > 100 µM (inactive) | > 100 µM (inactive) | 60.5 µM (inactive) | 41.8 µM (inactive) | > 100 µM (inactive) | > 100 µM (inactive) | > 100 µM (inactive) | > 100 µM (inactive) | > 100 µM (inactive) | > 100 µM (inactive) | > 100 µM (inactive) | > 100 µM (inactive) | > 100 µM (inactive) | > 100 µM (inactive) | > 100 µM (inactive)
14 | Cc1nc2cccc(F)c2c(=O)n1-c1nnc(C(F)(F)F)s1 | > 10 µM (inactive) | > 10 µM (inactive) | > 10 µM (inactive) | > 10 µM (inactive) | > 10 µM (inactive) | > 10 µM (inactive) | > 10 µM (inactive) | > 10 µM (inactive) | > 10 µM (inactive) | > 10 µM (inactive) | > 10 µM (inactive) | > 10 µM (inactive) | > 10 µM (inactive) | > 10 µM (inactive) | > 10 µM (inactive) | > 10 µM (inactive) | > 10 µM (inactive) | > 10 µM (inactive) | > 10 µM (inactive) | > 10 µM (inactive)
